According to ChEMBL document CHEMBL3632478, “Design, synthesis and biological evaluation of imidazopyridine/imidazopyrimidine-benzimidazole conjugates as potential anticancer agents” (Medchemcomm, 2015):
Activity calls are given as the source filed them. No cut-off for these calls is given here.

What was measured:
DU-145 = assay: Antiproliferative activity against human DU145 cells after 48 hrs by MTT assay; assay type: functional, cell-based; settings: DU-145, 48 h
HeLa = assay: Antiproliferative activity against human HeLa cells after 48 hrs by MTT assay; assay type: functional, cell-based
B16 = assay: Antiproliferative activity against mouse B16 cells after 48 hrs by MTT assay; assay type: functional, cell-based; settings: B16, 48 h
A549 [1] = assay: Antiproliferative activity against human A549 cells after 48 hrs by MTT assay; assay type: functional, cell-based; settings: A549, 48 h
A549 [2] = assay: Cell cycle arrest in human A549 cells assessed as accumulation at sub G1 phase at 2 uM after 48 hrs by propidium iodide based flow cytometry (reference value: 0.65%); assay type: functional
A549 [3] = assay: Cell cycle arrest in human A549 cells assessed as accumulation at G0/G1 phase at 1 uM after 48 hrs by propidium iodide based flow cytometry (reference value: 85.63%); assay type: functional
A549 [4] = assay: Induction of apoptosis in human A549 cells assessed as caspase-3 activation at 2 uM after 48 hrs by Ac-DEVD substrate based fluorescence assay relative to control; assay type: functional
A549 [5] = assay: Induction of apoptosis in human A549 cells assessed as early apoptotic cells at 1 uM after 48 hrs by annexin V-FITC and propidium iodide double staining based flow cytometric analysis (reference value: 0%); assay type: functional
A549 [6] = assay: Induction of apoptosis in human A549 cells assessed as early apoptotic cells at 2 uM after 48 hrs by annexin V-FITC and propidium iodide double staining based flow cytometric analysis (reference value: 0%); assay type: functional
A549 [7] = assay: Induction of apoptosis in human A549 cells assessed as caspase-3 activation at 1 uM after 48 hrs by Ac-DEVD substrate based fluorescence assay relative to control; assay type: functional
A549 [8] = assay: Induction of apoptosis in human A549 cells assessed as […] condensation at 1 uM after 48 hrs by Hoechst 33342 based fluorescent microscopic analysis; assay type: functional, cell-based
A549 [9] = assay: Induction of apoptosis in human A549 cells assessed as viable cells at 2 uM after 48 hrs by annexin V-FITC and propidium iodide double staining based flow cytometric analysis (reference value: 99.79%); assay type: functional; settings: A549, 48 h, read-out: Activity
A549 [10] = assay: Cell cycle arrest in human A549 cells assessed as accumulation at S phase at 1 uM after 48 hrs by propidium iodide based flow cytometry (reference value: 3.59%); assay type: functional
A549 [11] = assay: Cell cycle arrest in human A549 cells assessed as accumulation at G2/M phase at 2 uM after 48 hrs by propidium iodide based flow cytometry (reference value: 10.39%); assay type: functional
A549 [12] = assay: Induction of apoptosis in human A549 cells assessed as late apoptotic cells at 2 uM after 48 hrs by annexin V-FITC and propidium iodide double staining based flow cytometric analysis (reference value: 0.14%); assay type: functional
A549 [13] = assay: Cell cycle arrest in human A549 cells assessed as accumulation at G0/G1 phase at 2 uM after 48 hrs by propidium iodide based flow cytometry (reference value: 85.63%); assay type: functional
A549 [14] = assay: Induction of apoptosis in human A549 cells assessed as late apoptotic cells at 1 uM after 48 hrs by annexin V-FITC and propidium iodide double staining based flow cytometric analysis (reference value: 0.14%); assay type: functional
A549 [15] = assay: Induction of apoptosis in human A549 cells assessed as dead cells at 2 uM after 48 hrs by annexin V-FITC and propidium iodide double staining based flow cytometric analysis (Rvb =0.07%); assay type: functional
A549 [16] = assay: Induction of apoptosis in human A549 cells assessed as apoptotic bodies at 1 uM after 48 hrs by Hoechst 33342 based fluorescent microscopic analysis; assay type: functional, cell-based
A549 [17] = assay: Induction of apoptosis in human A549 cells assessed as viable cells at 1 uM after 48 hrs by annexin V-FITC and propidium iodide double staining based flow cytometric analysis (reference value: 99.79%); assay type: functional; settings: A549, 48 h, read-out: Activity
A549 [18] = assay: Cell cycle arrest in human A549 cells assessed as accumulation at S phase at 2 uM after 48 hrs by propidium iodide based flow cytometry (reference value: 3.59%); assay type: functional
A549 [19] = assay: Induction of apoptosis in human A549 cells assessed as nuclear fragmentation at 1 uM after 48 hrs by Hoechst 33342 based fluorescent microscopic analysis; assay type: functional, cell-based
A549 [20] = assay: Inhibition of microtubule organization in human A549 cells at 1 uM after 48 hrs by immunofluorescence microscopic analysis; assay type: cell-based
Tubulin = Tubulin (Sus scrofa, UniProt P02554+P02550); assay: Inhibition of porcine brain tubulin polymerization after 1 hr by fluorescence assay
A549 [21] = assay: Induction of apoptosis in human A549 cells assessed as dead cells at 1 uM after 48 hrs by annexin V-FITC and propidium iodide double staining based flow cytometric analysis (Rvb =0.07%); assay type: functional
Tubulin (Sus scrofa) = Tubulin (Sus scrofa) (UniProt P02554+P02550); assay: Inhibition of porcine brain tubulin polymerization at 3 uM after 1 hr by fluorescence assay
Sequence of Tubulin (Sus scrofa) (P02550 whole entry, looked up): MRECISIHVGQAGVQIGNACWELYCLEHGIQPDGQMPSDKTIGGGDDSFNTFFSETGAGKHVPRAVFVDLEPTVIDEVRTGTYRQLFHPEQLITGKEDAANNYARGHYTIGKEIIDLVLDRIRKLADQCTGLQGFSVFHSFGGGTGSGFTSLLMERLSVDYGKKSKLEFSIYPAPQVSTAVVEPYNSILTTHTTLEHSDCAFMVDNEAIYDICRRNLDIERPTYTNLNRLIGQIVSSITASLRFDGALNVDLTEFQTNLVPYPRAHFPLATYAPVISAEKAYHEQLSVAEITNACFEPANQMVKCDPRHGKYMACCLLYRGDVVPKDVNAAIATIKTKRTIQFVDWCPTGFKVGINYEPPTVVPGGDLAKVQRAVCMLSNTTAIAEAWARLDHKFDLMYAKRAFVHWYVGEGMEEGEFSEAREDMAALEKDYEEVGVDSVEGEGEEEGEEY
Sequence of Tubulin (Sus scrofa) (P02554 whole entry, looked up): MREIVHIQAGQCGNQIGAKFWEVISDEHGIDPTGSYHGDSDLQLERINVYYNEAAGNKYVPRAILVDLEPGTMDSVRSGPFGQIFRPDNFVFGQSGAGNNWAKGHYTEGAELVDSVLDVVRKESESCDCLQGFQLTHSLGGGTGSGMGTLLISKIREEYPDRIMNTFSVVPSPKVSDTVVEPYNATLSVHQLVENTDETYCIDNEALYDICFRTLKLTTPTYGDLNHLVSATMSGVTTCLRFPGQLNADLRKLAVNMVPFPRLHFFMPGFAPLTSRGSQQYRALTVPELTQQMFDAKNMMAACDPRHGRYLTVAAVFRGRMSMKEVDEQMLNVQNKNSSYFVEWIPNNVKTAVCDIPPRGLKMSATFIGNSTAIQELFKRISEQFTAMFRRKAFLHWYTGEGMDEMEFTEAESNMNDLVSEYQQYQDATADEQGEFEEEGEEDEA

A549 [22] = assay: Cell cycle arrest in human A549 cells assessed as accumulation at sub G1 phase at 1 uM after 48 hrs by propidium iodide based flow cytometry (reference value: 0.65%); assay type: functional
A549 [23] = assay: Induction of apoptosis in human A549 cells assessed as DNA fragmentation at 1 uM after 48 hrs by ethidium bromide based agarose gel electrophoresis; assay type: functional, cell-based
A549 [24] = assay: Cell cycle arrest in human A549 cells assessed as accumulation at G2/M phase at 1 uM after 48 hrs by propidium iodide based flow cytometry (reference value: 10.39%); assay type: functional

COc1ccc(-c2nc3ccccn3c2-c2nc3ccc(Cl)cc3[nH]2)cc1
IC50 (DU-145): 19.5 µM
IC50 (HeLa): 14.5 µM
IC50 (B16): 16 µM
IC50 (A549 [1]): 19.4 µM

COc1ccc(-c2nc3ncccn3c2-c2nc3ccc(F)cc3[nH]2)cc1
IC50 (DU-145): 13.8 µM
IC50 (HeLa): 17 µM
IC50 (B16): 19.4 µM
IC50 (A549 [1]): 15.1 µM

Cc1ccc2nc(-c3c(-c4ccccc4)nc4ncccn34)[nH]c2c1
IC50 (DU-145): 2.34 µM
IC50 (HeLa): 7.58 µM
IC50 (B16): 8.91 µM
IC50 (A549 [1]): 2.19 µM

COc1ccc2nc(-c3c(-c4ccccc4)nc4ncccn34)[nH]c2c1
IC50 (DU-145): 3.71 µM
IC50 (HeLa): 9.33 µM
IC50 (B16): 10.2 µM
IC50 (A549 [1]): 2.12 µM

COc1ccc2nc(-c3c(-c4ccc(F)cc4)nc4ncccn34)[nH]c2c1
IC50 (DU-145): 16 µM
IC50 (HeLa): 19.9 µM
IC50 (B16): > 30 µM
IC50 (A549 [1]): 18.6 µM

c1ccc(-c2nc3ncccn3c2-c2nc3ccccc3[nH]2)cc1
IC50 (DU-145): 2.34 µM
IC50 (HeLa): 2.25 µM
Activity (A549 [2]): 2.7%
Activity (A549 [3]): 83.5%
fold change (FC) (A549 [4]): 2
IC50 (B16): 10.5 µM
Activity (A549 [5]): 5.08%
IC50 (A549 [1]): 1.92 µM
Activity (A549 [6]): 10.25%
fold change (FC) (A549 [7]): 2
Activity (A549 [8]): Active
viability at 2 µM (A549 [9]): 88.4%
Activity (A549 [10]): 3.71%
Activity (A549 [11]): 33.8%
Activity (A549 [12]): 1.2%
Activity (A549 [13]): 64.8%
Activity (A549 [14]): 2.69%
Activity (A549 [15]): 0.18%
Activity (A549 [16]): Active
viability at 1 µM (A549 [17]): 91.9%
Activity (A549 [18]): 2.88%
Activity (A549 [19]): Active
inhibition (A549 [20]): Active
IC50 (Tubulin): 2.26 µM
Activity (A549 [21]): 0.35%
inhibition (Tubulin (Sus scrofa)): 60.5%
Activity (A549 [22]): 1.28%
Activity (A549 [23]): Active
Activity (A549 [24]): 12.6%

Fc1ccc(-c2nc3ncccn3c2-c2nc3ccc(Cl)cc3[nH]2)cc1
IC50 (DU-145): 12.6 µM
IC50 (HeLa): 20.3 µM
IC50 (B16): > 30 µM
IC50 (A549 [1]): 19.7 µM

Clc1ccc2nc(-c3c(-c4ccccc4)nc4ncccn34)[nH]c2c1
IC50 (DU-145): > 30 µM
IC50 (HeLa): > 30 µM
IC50 (B16): > 30 µM
IC50 (A549 [1]): > 30 µM

COc1ccc(-c2nc3ncccn3c2-c2nc3ccc(C)cc3[nH]2)cc1
IC50 (DU-145): 7.08 µM
IC50 (HeLa): 2.57 µM
Activity (A549 [2]): 2.19%
Activity (A549 [3]): 82.68%
fold change (FC) (A549 [4]): 2
IC50 (B16): 3.63 µM
Activity (A549 [5]): 8.18%
IC50 (A549 [1]): 1.48 µM
Activity (A549 [6]): 13.49%
fold change (FC) (A549 [7]): 2
Activity (A549 [8]): Active
viability at 2 µM (A549 [9]): 85.1%
Activity (A549 [10]): 3.65%
Activity (A549 [11]): 29%
Activity (A549 [12]): 1.3%
Activity (A549 [13]): 59.33%
Activity (A549 [14]): 1.43%
Activity (A549 [15]): 0.07%
Activity (A549 [16]): Active
viability at 1 µM (A549 [17]): 90.2%
Activity (A549 [18]): 3.63%
Activity (A549 [19]): Active
inhibition (A549 [20]): Active
IC50 (Tubulin): 2.06 µM
Activity (A549 [21]): 0.22%
inhibition (Tubulin (Sus scrofa)): 61.1%
Activity (A549 [22]): 0.76%
Activity (A549 [23]): Active
Activity (A549 [24]): 11.7%

COc1ccc(-c2nc3ncccn3c2-c2nc3ccc(OC)cc3[nH]2)cc1
IC50 (DU-145): 5.62 µM
IC50 (HeLa): 15.8 µM
IC50 (B16): 19.9 µM
IC50 (A549 [1]): 6.91 µM

COc1ccc(-c2nc3ccccn3c2-c2nc3ccc(F)cc3[nH]2)cc1
IC50 (DU-145): 15.9 µM
IC50 (HeLa): 17.6 µM
IC50 (B16): 14.8 µM
IC50 (A549 [1]): 14.6 µM

COc1ccc(-c2nc3ncccn3c2-c2nc3ccc(Cl)cc3[nH]2)cc1
IC50 (DU-145): 19.9 µM
IC50 (HeLa): 14 µM
IC50 (B16): 26.8 µM
IC50 (A549 [1]): 10.2 µM

COC(=O)Nc1nc2cc(C(=O)c3cccs3)ccc2[nH]1 [NOCODAZOLE]
IC50 (DU-145): 0.25 µM
IC50 (HeLa): 2.23 µM
Activity (A549 [3]): 63.76%
IC50 (B16): 0.69 µM
Activity (A549 [5]): 11.71%
IC50 (A549 [1]): 1.62 µM
Activity (A549 [10]): 0.69%
Activity (A549 [14]): 1.29%
viability at 1 µM (A549 [17]): 87%
Activity (A549 [21]): 0.04%
inhibition (Tubulin (Sus scrofa)): 66.9%
Activity (A549 [22]): 9.23%
Activity (A549 [24]): 24.28%

Cc1ccc2nc(-c3c(-c4ccc(F)cc4)nc4ncccn34)[nH]c2c1
IC50 (DU-145): 10.2 µM
IC50 (HeLa): 12.9 µM
IC50 (B16): 15.1 µM
IC50 (A549 [1]): > 30 µM

COc1ccc(-c2nc3ccccn3c2-c2nc3ccc(OC)cc3[nH]2)cc1
IC50 (DU-145): > 30 µM
IC50 (HeLa): > 30 µM
IC50 (B16): > 30 µM
IC50 (A549 [1]): > 30 µM

Fc1ccc2nc(-c3c(-c4ccccc4)nc4ncccn34)[nH]c2c1
IC50 (DU-145): 4.89 µM
IC50 (HeLa): 6.91 µM
IC50 (B16): 17 µM
IC50 (A549 [1]): 8.51 µM

COc1ccc(-c2nc3ccccn3c2-c2nc3ccccc3[nH]2)cc1
IC50 (DU-145): 24 µM
IC50 (HeLa): 20.4 µM
IC50 (B16): > 30 µM
IC50 (A549 [1]): 23.2 µM

Fc1ccc(-c2nc3ncccn3c2-c2nc3ccc(F)cc3[nH]2)cc1
IC50 (DU-145): 14.4 µM
IC50 (HeLa): 15.3 µM
IC50 (B16): 15.6 µM
IC50 (A549 [1]): 19.2 µM

Fc1ccc(-c2nc3ncccn3c2-c2nc3ccccc3[nH]2)cc1
IC50 (DU-145): 7.78 µM
IC50 (HeLa): 8.19 µM
IC50 (B16): 16.6 µM
IC50 (A549 [1]): 11 µM

COc1ccc(-c2nc3ccccn3c2-c2nc3ccc(C)cc3[nH]2)cc1
IC50 (DU-145): > 30 µM
IC50 (HeLa): 26.4 µM
IC50 (B16): > 30 µM
IC50 (A549 [1]): > 30 µM

COc1ccc(-c2nc3ncccn3c2-c2nc3ccccc3[nH]2)cc1
IC50 (DU-145): 13.2 µM
IC50 (HeLa): 9.06 µM
IC50 (B16): 16.7 µM
IC50 (A549 [1]): 10.5 µM
